Test results taken from patent publication US6740500B1, “Method of screening for non-steroidal neuropsychiatric agents” (priority 2000, dated 2004).

Columns and labels:
[1] = system: γ-aminobutyric acid type A (GABAA) receptor; settings: at low nanomolar concentrations; cited from earlier work
brain ALLO content = experiment: Brain ALLO content after fluoxetine in normal and ADX/CX male rats; assay type: in vivo, rat
[2] = system: ALLO content in rat brain slices; experiment: ALLO content in vitro in rat brain slices; assay type: cell-based
Source text: Presumably, this effect was mediated via an inhibition of the oxidative function of the 3α-HSOR by the FGIN-1 drugs. Such an effect would lead to the accumulation of ALLO, since the reverse step—the reduction of 5α-DHP to ALLO was not affected by these compounds. Similar results were obtained in brain slices of ADX/CX rats.

[3] = system: ALLO in the cerebrospinal fluid (CSF); experiment: CSF neurosteroid content in patients with unipolar major depression after SSRI treatment; assay type: in vivo, human; settings: 8-10 weeks of treatment
socially isolated mice = experiment: Social-isolation stress mice: brain ALLO content and barbiturate-induced sleeping time; assay type: in vivo; settings: single injection 2.6 μmol/Kg i.p.

Row | Compound | modulation of GABAA receptor function [1] | increase of brain ALLO content (brain ALLO content; 5-20 mg/kg, i.p., normal and ADX/CX male rats) | brain ALLO content after fluoxetine (brain ALLO content; ADX/CX rats, increase from 2 pmol/g) [pmol/g] | dose and time dependence of effect on brain ALLO content (brain ALLO content; also after protracted fluoxetine treatment) | brain ALLO content after fluoxetine (brain ALLO content; normal rats, increase from 3 pmol/g tissue) [pmol/g tissue] | brain region specificity of ALLO increase (brain ALLO content; rat brain regions) | ALLO content in rat brain slices [2] | concentration of ALLO in CSF [3] | brain content of ALLO and barbiturate-sleeping time (socially isolated mice; group-housed mice) | barbiturate-sleeping time (socially isolated mice; socially isolated mice) | brain content of ALLO (socially isolated mice; socially isolated mice)
1 | CC(=O)[C@H]1CC[C@H]2[C@@H]3CC[C@H]4C[C@H](O)CC[C@]4(C)[C@H]3CC[C@]12C [ALLO, 5α-pregnan-3α-ol-20-one] | positively modulates |  |  |  |  |  |  |  |  |  | 
2 | CNCCC(Oc1ccc(C(F)(F)F)cc1)c1ccccc1 (centres unmarked) [fluoxetine] |  | 2-3 fold | 8 | dose- and time-dependent | 9 | most pronounced ALLO increase occurring in the olfactory bulb, cortex, and hippocampus | could increase ALLO content | significantly increased | without altering | normalized | normalized
